In US20250241891A1, “TREATMENT OF ANXIETY” (GH RESEARCH IRELAND LIMITED, priority 2022, published 2025):

Tested on: patients with postpartum depression (PPD)
Test: Clinical trial of inhaled 5-MeO-DMT in postpartum depression (MADRS, BPRS, BIMF, PES, safety)
Experimental: The single-arm, open-label clinical trial will involve 15 adult female patients with clinically diagnosed postpartum depression (PPD).
The second dose (12 mg) will only be administered if: • a. […] The 6 mg dose was safe and well-tolerated according to the investigator, • c. Any psychoactive effects (PsE) of the prior dose have subsided, and • d. Pre-dose vital parameters and forced expiratory volume in one second (FEV1) are in normal range, or if outside of the normal range, are not clinically significant according to the investigator. • 3. Similarly, a third dose (18 mg) will only be administered if: • a. […] The 12 mg dose was safe and well-tolerated according to the investigator, and • c. Any PsE of the prior dose have subsided, and • d. Pre-dose vital parameters and forced expiratory volume in one second (FEV1) are in normal range, or if outside of the normal range, are not clinically significant according to the investigator.
The patients will be assessed for a peak psychedelic experience (based on a patient-scored visual analogue scale, the PE scale), sedation, and other endpoints after dosing. Follow-up visits are planned for Day 1, and Day 7 after the dosing day.
The following criteria must be met by all patients considered for clinical trial participation: • 1. Is female and in the age range between 18 and 45 years (inclusive) at screening. • 2. Has a body mass index (BMI) in the range of 18.5 and 35 kg/m^2 (inclusive) at screening. • 3. Meets the trial criteria for PPD as assessed by a trial psychiatrist or registered psychologist: • a. Diagnosis of Major Depressive Disorder without psychotic features, confirmed by the Mini-International Neuropsychiatric Interview (MINI), with peri-partum onset that began no earlier than gestation and no later than the first 4 weeks postpartum. • b. Has a Montgomery-Åsberg Depression Rating Scale (MADRS) total score of equal to or greater than 28 at screening and pre-dose on Day 0. • 6. […] Patients must have a negative pregnancy test at screening and on the pre-test day (Day −1). • 5. Is willing to delay start of other antidepressant or anxiety medication until after the end of the trial at Day 7 and agrees to keep any psychotherapy unchanged during the trial.
A potential patient who meets any of the following key exclusion criteria will be excluded from participation in this trial: • 1. Has, based on history, psychiatric assessment, and evaluation of the MINI, a current or prior diagnosis of bipolar disorder, a manic or hypomanic episode, a psychotic disorder, Major Depressive Disorder (MDD) or other mood disorder with psychotic features, obsessive compulsive disorder, post-traumatic stress disorder (PTSD), autism spectrum disorder, borderline personality disorder, schizophrenia, delusional disorder, paranoid personality disorder, schizoaffective disorder, clinically significant intellectual disability, or any other psychiatric comorbidity that renders the patient unsuitable for the trial according to the investigator's judgment. • 2. Has one or more first or second degree relatives with a current or previously diagnosed bipolar disorder, psychotic disorder or other mood disorder (including MDD) with psychotic features. • 3. Is in the judgement of a trial psychiatrist or registered psychologist, at significant risk for suicide based on history, psychiatric assessment, and evaluation of suicidal ideation and suicidal behaviour based on the Columbia-Suicide Severity Rating Scale (C-SSRS). • 4. Has taken anti-depressive medication within 14 days or 5 half-lives (whichever is longer) prior to dosing (exception: within the last 5 weeks in the case of fluoxetine). • 5.

[1] = PPD n=1, IDR 6+12 mg inhaled, day 1, baseline 5
[2] = PPD n=1, IDR 6+12 mg inhaled, day 1, baseline 6
[3] = PPD n=1, IDR 6+12 mg inhaled, day 1, baseline 7
[4] = PPD n=1, IDR 6+12 mg inhaled, day 7, baseline 0
[5] = PPD n=1, IDR 6+12 mg inhaled, day 7, baseline 1
[6] = PPD n=1, IDR 6+12 mg inhaled, day 7, baseline 2
[7] = PPD n=1, IDR 6+12 mg inhaled, day 7, baseline 3
[8] = PPD n=1, IDR 6+12 mg inhaled, day 7, baseline 4
[9] = PPD n=1, IDR 6+12 mg inhaled, day 7, baseline 5
[10] = PPD n=1, IDR 6+12 mg inhaled, day 7, baseline 6
[11] = PPD n=1, IDR 6+12 mg inhaled, day 7, baseline 7
[12] = PPD n=1, IDR 6+12 mg inhaled, discharge, baseline 1
[13] = PPD n=1, IDR 6+12 mg inhaled, discharge, baseline 2
[14] = PPD n=1, IDR 6+12 mg inhaled, discharge, baseline 5
[15] = PPD n=1, IDR 6+12 mg inhaled, discharge, baseline 6
[16] = PPD n=1, IDR 6+12 mg inhaled, discharge, baseline 7

COc1ccc2[nH]cc(CCN(C)C)c2c1 [5-MeO-DMT]
MADRS Reduced Sleep improvement [1]: 5
MADRS Reduced Sleep score [1]: 0
BPRS Depressive Mood improvement [2]: 5
BPRS Depressive Mood score [2]: 1
BPRS Guilt Feelings score [2]: 1
BPRS Guilt feelings improvement [2]: 5
BPRS Somatic Concern improvement [2]: 5
BPRS Somatic Concern score [2]: 1
BPRS Tension improvement [2]: 5
BPRS Tension score [2]: 1
BPRS Anxiety improvement [3]: 6
BPRS Anxiety score [3]: 1
MADRS Concentration Difficulties improvement [4]: 0
MADRS Concentration Difficulties score [4]: 0
MADRS Reduced appetite improvement [4]: 0
MADRS Reduced appetite score [4]: 0
MADRS Suicidal Thoughts improvement [4]: 0
MADRS Suicidal Thoughts score [4]: 0
BPRS Blunted Affect score [5]: 1
BPRS Blunted affect improvement [5]: 0
BPRS Conceptual disorganization improvement [5]: 0
BPRS Conceptual disorganization score [5]: 1
BPRS Disorientation improvement [5]: 0
BPRS Disorientation score [5]: 1
BPRS Grandiosity improvement [5]: 0
BPRS Grandiosity score [5]: 1
BPRS Hallucinatory behaviour improvement [5]: 0
BPRS Hallucinatory behaviour score [5]: 1
BPRS Hostility improvement [5]: 0
BPRS Hostility score [5]: 1
BPRS Mannerisms and Posturing improvement [5]: 0
BPRS Mannerisms and Posturing score [5]: 1
BPRS Motor retardation improvement [5]: 0
BPRS Motor retardation score [5]: 1
BPRS Suspiciousness improvement [5]: 0
BPRS Suspiciousness score [5]: 1
BPRS Uncooperativeness improvement [5]: 0
BPRS Uncooperativeness score [5]: 1
BPRS Unusual Thought Content improvement [5]: 0
BPRS Unusual Thought Content score [5]: 1
BPRS Excitement improvement [6]: 1
BPRS Excitement score [6]: 1
MADRS Inability to Feel improvement [7]: 3
MADRS Inability to Feel score [7]: 0
MADRS Lassitude improvement [7]: 3
MADRS Lassitude score [7]: 0
MADRS Pessimistic Thoughts improvement [8]: 4
MADRS Pessimistic Thoughts score [8]: 0
MADRS Reported sadness improvement [8]: 4
MADRS Reported sadness score [8]: 0
BPRS Emotional Withdrawal score [9]: 1
BPRS Emotional withdrawal improvement [9]: 4
MADRS Apparent sadness improvement [9]: 5
MADRS Apparent sadness score [9]: 0
MADRS Inner Tension improvement [9]: 4
MADRS Inner Tension score [9]: 1
MADRS Reduced Sleep improvement [9]: 5
MADRS Reduced Sleep score [9]: 0
BPRS Depressive Mood improvement [10]: 5
BPRS Depressive Mood score [10]: 1
BPRS Guilt Feelings score [10]: 1
BPRS Guilt feelings improvement [10]: 5
BPRS Somatic Concern improvement [10]: 5
BPRS Somatic Concern score [10]: 1
BPRS Tension improvement [10]: 5
BPRS Tension score [10]: 1
BPRS Anxiety improvement [11]: 6
BPRS Anxiety score [11]: 1
BPRS Blunted Affect score [12]: 1
BPRS Blunted affect improvement [12]: 0
BPRS Conceptual disorganization improvement [12]: 0
BPRS Conceptual disorganization score [12]: 1
BPRS Disorientation improvement [12]: 0
BPRS Disorientation score [12]: 1
BPRS Grandiosity improvement [12]: 0
BPRS Grandiosity score [12]: 1
BPRS Hallucinatory behaviour improvement [12]: 0
BPRS Hallucinatory behaviour score [12]: 1
BPRS Hostility improvement [12]: 0
BPRS Hostility score [12]: 1
BPRS Mannerisms and Posturing improvement [12]: 0
BPRS Mannerisms and Posturing score [12]: 1
BPRS Motor retardation improvement [12]: 0
BPRS Motor retardation score [12]: 1
BPRS Suspiciousness improvement [12]: 0
BPRS Suspiciousness score [12]: 1
BPRS Uncooperativeness improvement [12]: 0
BPRS Uncooperativeness score [12]: 1
BPRS Unusual Thought Content improvement [12]: 0
BPRS Unusual Thought Content score [12]: 1
BPRS Excitement improvement [13]: 1
BPRS Excitement score [13]: 1
BPRS Emotional Withdrawal score [14]: 1
BPRS Emotional withdrawal improvement [14]: 4
BPRS Depressive Mood improvement [15]: 5
BPRS Depressive Mood score [15]: 1
BPRS Guilt Feelings score [15]: 1
BPRS Guilt feelings improvement [15]: 5
BPRS Somatic Concern improvement [15]: 5
BPRS Somatic Concern score [15]: 1
BPRS Tension score [15]: 1
BPRS Anxiety improvement [16]: 6
BPRS Anxiety score [16]: 1
ECG, safety laboratory analyses and CADSS assessments (PPD n=1, ECG 3 hours, laboratory 7 days, CADSS 3 hours, 1 day and 7 days): unremarkable
